Measured values taken from US20020137929A1, “1 - (3-heterocyclylphenyl) isothiourea, -isourea, -guanidine and -amidine herbicidal agents” (Intellectual Property Department, BASF Aktiengesellschaft, priority 1998, published 2002).

Experiments:
[1] = test system: SAGPY (Arrowhead (Pygmaea)); assay: Preemergence weed control under flooded paddy conditions; format: in vivo, Sagittaria pygmaea; conditions: rated 3-4 weeks after treatment
Method in brief: (§1)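 Ratings on a 0-9 visual scale cover stand, vigor, malformation, size, chlorosis and overall appearance relative to a control, taken three to four weeks post-treatment. Application was into flood water over freshly sown silt loam at roughly 0.0313 to 0.500 kg/ha.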

ECHCG (Barnyardgrass) = assay: Postemergence herbicidal evaluation; format: in vivo, Echinochloa crus-galli; conditions: postemergence
Method in brief: (§2)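 Visual 0–9 rating versus control (stand, vigor, malformation, size, chlorosis, overall appearance), taken four to five weeks post-spray. Two-week-old seedlings received roughly 0.0156–0.500 kg/ha active in acetone/water (50/50) with 0.5% TWEEN 20 via nozzle at 40 psi.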

GALAP (Galium) = assay: Preemergence herbicidal evaluation; format: in vivo, Galium aparine; conditions: preemergence, rated 4-5 weeks after treatment, 0-9 scale
Method in brief: (§3)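 Each species is sown separately in potting soil over roughly an inch of soil before any emergence. The soil surface then receives an aqueous acetone spray delivering about 0.0156 to 0.500 kg/ha of compound. After four to five weeks, injury is scored from 0 to 9 relative to a control.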

SETVI (Foxtail, Green) = assay: Preemergence herbicidal evaluation; format: in vivo, Setaria viridis; conditions: preemergence, rated 4-5 weeks after treatment, 0-9 scale
Method in brief: as §3

[2] = test system: TRZAWR (Wheat, Winter, cv Riband); assay: Preemergence herbicidal evaluation; format: in vivo, Triticum aestivum; conditions: preemergence, rated 4-5 weeks after treatment, 0-9 scale
Method in brief: as §3

[3] = test system: GLXMAW (Soybean, Williams); assay: Preemergence herbicidal evaluation; format: in vivo, Glycine max, (L.) Merr. cv Williams; conditions: preemergence, rated 4-5 weeks after treatment, 0-9 scale
Method in brief: as §3

[4] = test system: CHEAL (Lambsquarters, Common); assay: Postemergence herbicidal evaluation; format: in vivo, Chenopodium album; conditions: postemergence
Method in brief: as §2

CYPIR (Rice Flatsedge) = assay: Preemergence weed control under flooded paddy conditions; format: in vivo, Cyperus iria; conditions: rated 3-4 weeks after treatment
Method in brief: as §1

MOOVA (Monochoria) = assay: as above; format: in vivo, Monochoria vaginalis; conditions: rated 3-4 weeks after treatment
Method in brief: as §1

ORYSAT (Rice, Tebonnet) [5] = assay: Postemergence herbicidal evaluation; format: in vivo, Oryza sativa, (L.) Tebonnet; conditions: postemergence
Method in brief: as §2

CASOB (Sicklepod) = assay: Postemergence herbicidal evaluation; format: in vivo, Cassia obtusifolia; conditions: postemergence
Method in brief: as §2

ZEAMX (Corn, Field) = assay: Preemergence herbicidal evaluation; format: in vivo, Zea mays; conditions: preemergence, rated 4-5 weeks after treatment, 0-9 scale
Method in brief: as §3

ORYSAT (Rice, Tebonnet) [6] = assay: Preemergence herbicidal evaluation; format: in vivo, Oryza sativa, (L.) Tebonnet; conditions: preemergence, rated 4-5 weeks after treatment, 0-9 scale
Method in brief: as §3

CYPSE (Flatsedge) = assay: Postemergence weed control under flooded paddy conditions; format: in vivo, Cyperus serotinus; conditions: postemergence weeds, rated 3 to 4 weeks after treatment
Method in brief: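 Injury ratings (0–9 scale covering stand, vigor, malformation, size, chlorosis and overall appearance versus control) were made three to four weeks after treatment. Test material, about 0.0313 to 0.500 kg/ha a.i. in 50/50 v/v aqueous/acetone, was added to flood water 1.5 to 3 cm deep over 3 to 5 cm weeds and 1.5 to 2.5 leaf rice.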

CCOC(=O)CN1C(=O)C(CC(=O)NS(=O)(=O)c2ccccc2)SC1=Nc1cc(-n2c(=O)cc(C(F)(F)F)n(C)c2=O)c(F)cc1Cl (stereo not shown) [Compound 100, Ethyl 2-{{2-chloro-5-[3,6-dihydro-3-methyl-2,6-dioxo-4-(trifluoromethyl)-1(2H)-pyrimidinyl]-4-fluorophenyl}imino}-4-oxo-5-{[(phenylsulfonyl)-carbamoyl]methyl]-3-thiazolidineacetate]
SAGPY herbicidal effect rating ([1]; 0.0313 kg/ha): 0.0
SAGPY herbicidal effect rating ([1]; 0.0625 kg/ha): 0.0
SAGPY herbicidal effect rating ([1]; 0.1250 kg/ha): 0.0
SAGPY herbicidal effect rating ([1]; 0.2500 kg/ha): 4.0
SAGPY herbicidal effect rating ([1]; 0.5000 kg/ha): 6.0
herbicidal rating ECHCG (ECHCG (Barnyardgrass); rate 0.0156 kg/ha): 1.0
herbicidal rating ECHCG (ECHCG (Barnyardgrass); rate 0.0313 kg/ha): 3.0
herbicidal rating ECHCG (ECHCG (Barnyardgrass); rate 0.0625 kg/ha): 4.0
herbicidal rating ECHCG (ECHCG (Barnyardgrass); rate 0.1250 kg/ha): 7.0
GALAP rating (GALAP (Galium); 0.0313 kg/ha): 0.0
GALAP rating (GALAP (Galium); 0.0625 kg/ha): 1.0
GALAP rating (GALAP (Galium); 0.2500 kg/ha): 6.0
GALAP rating (GALAP (Galium); 0.5000 kg/ha): 6.0
SETVI rating (SETVI (Foxtail, Green); 0.0313 kg/ha): 0.0
SETVI rating (SETVI (Foxtail, Green); 0.0625 kg/ha): 1.0
SETVI rating (SETVI (Foxtail, Green); 0.1250 kg/ha): 0.0
SETVI rating (SETVI (Foxtail, Green); 0.2500 kg/ha): 1.0
SETVI rating (SETVI (Foxtail, Green); 0.5000 kg/ha): 1.0
TRZAWR rating ([2]; 0.0313 kg/ha): 0.0
TRZAWR rating ([2]; 0.0625 kg/ha): 0.0
TRZAWR rating ([2]; 0.1250 kg/ha): 1.0
TRZAWR rating ([2]; 0.2500 kg/ha): 0.0
TRZAWR rating ([2]; 0.5000 kg/ha): 1.0
GLXMAW rating ([3]; 0.0313 kg/ha): 0.0
GLXMAW rating ([3]; 0.0625 kg/ha): 1.0
GLXMAW rating ([3]; 0.1250 kg/ha): 1.0
GLXMAW rating ([3]; 0.2500 kg/ha): 0.0
GLXMAW rating ([3]; 0.5000 kg/ha): 2.0
herbicidal rating CHEAL ([4]; rate 0.0156 kg/ha): 5.0
herbicidal rating CHEAL ([4]; rate 0.0313 kg/ha): 7.0
herbicidal rating CHEAL ([4]; rate 0.0625 kg/ha): 7.0
herbicidal rating CHEAL ([4]; rate 0.1250 kg/ha): 9.0
CYPIR herbicidal effect rating (CYPIR (Rice Flatsedge); 0.0313 kg/ha): 0.0
CYPIR herbicidal effect rating (CYPIR (Rice Flatsedge); 0.0625 kg/ha): 0.0
CYPIR herbicidal effect rating (CYPIR (Rice Flatsedge); 0.1250 kg/ha): 0.0
CYPIR herbicidal effect rating (CYPIR (Rice Flatsedge); 0.2500 kg/ha): 4.0
CYPIR herbicidal effect rating (CYPIR (Rice Flatsedge); 0.5000 kg/ha): 9.0
MOOVA herbicidal effect rating (MOOVA (Monochoria); 0.0313 kg/ha): 9.0
MOOVA herbicidal effect rating (MOOVA (Monochoria); 0.0625 kg/ha): 9.0
MOOVA herbicidal effect rating (MOOVA (Monochoria); 0.1250 kg/ha): 9.0
MOOVA herbicidal effect rating (MOOVA (Monochoria); 0.2500 kg/ha): 9.0
MOOVA herbicidal effect rating (MOOVA (Monochoria); 0.5000 kg/ha): 9.0
herbicidal rating ORYSAT (ORYSAT (Rice, Tebonnet) [5]; rate 0.0156 kg/ha): 3.0
herbicidal rating ORYSAT (ORYSAT (Rice, Tebonnet) [5]; rate 0.0313 kg/ha): 3.5
herbicidal rating ORYSAT (ORYSAT (Rice, Tebonnet) [5]; rate 0.0625 kg/ha): 3.5
herbicidal rating ORYSAT (ORYSAT (Rice, Tebonnet) [5]; rate 0.1250 kg/ha): 3.5
herbicidal rating CASOB (CASOB (Sicklepod); rate 0.0156 kg/ha): 2.0
herbicidal rating CASOB (CASOB (Sicklepod); rate 0.0313 kg/ha): 7.0
herbicidal rating CASOB (CASOB (Sicklepod); rate 0.0625 kg/ha): 6.0
herbicidal rating CASOB (CASOB (Sicklepod); rate 0.1250 kg/ha): 9.0
ZEAMX rating (ZEAMX (Corn, Field); 0.0313 kg/ha): 0.0
ZEAMX rating (ZEAMX (Corn, Field); 0.0625 kg/ha): 0.0
ZEAMX rating (ZEAMX (Corn, Field); 0.1250 kg/ha): 0.0
ZEAMX rating (ZEAMX (Corn, Field); 0.2500 kg/ha): 0.0
ZEAMX rating (ZEAMX (Corn, Field); 0.5000 kg/ha): 1.0
ORYSAT rating (ORYSAT (Rice, Tebonnet) [6]; 0.0313 kg/ha): 0.0
ORYSAT rating (ORYSAT (Rice, Tebonnet) [6]; 0.0625 kg/ha): 0.0
ORYSAT rating (ORYSAT (Rice, Tebonnet) [6]; 0.1250 kg/ha): 0.0
ORYSAT rating (ORYSAT (Rice, Tebonnet) [6]; 0.2500 kg/ha): 0.0
ORYSAT rating (ORYSAT (Rice, Tebonnet) [6]; 0.5000 kg/ha): 1.0
Herbicidal rating CYPSE (CYPSE (Flatsedge); Rate 0.0313 kg/ha): 0.0
Herbicidal rating CYPSE (CYPSE (Flatsedge); Rate 0.0625 kg/ha): 0.0
Herbicidal rating CYPSE (CYPSE (Flatsedge); Rate 0.1250 kg/ha): 0.0
Herbicidal rating CYPSE (CYPSE (Flatsedge); Rate 0.2500 kg/ha): 0.0
